Conditions in all cases: Homo sapiens
Test [1] concerns MCF7. As to the kind of experiment: Cytotoxicity (growth inhibition) against breast cancer MCF-7 cell line at 10E-6 mol/L. It is filed as functional.
The test system of test [2] is Ishikawa. As to the kind of experiment: Cytotoxicity (growth inhibition) against endometrial cancer ishikawa cell line at 10E-5 mol/L after 24 hr. It is filed as functional.
In test [3] the test system is MCF7. Briefly: Cytotoxicity (growth inhibition) against breast cancer MCF-7 cell line at 10E-8 mol/L. It is filed as functional.
For test [4], the system named is MDA-MB-231. As to the kind of experiment: Cytotoxicity (growth inhibition) against breast cancer MDAMB-231 cell line at 10E-7 mol/L. It is filed as functional.
Test [5] relates to MCF7. As to the kind of experiment: Cytotoxicity (growth inhibition) against breast cancer MCF-7 cell line at 10E-7 mol/L. It counts as functional.
The subject of test [6] is MCF7. As to the kind of experiment: Cytotoxicity (growth inhibition) against breast cancer MCF-7 cell line at 10E-9 mol/L. It counts as functional.
Test [7] has as its system MDA-MB-231. Briefly: Inhibition of the necrosis induced by compound in breast cancer MDAMB-231 cell line. It is filed as functional, cell-based.
In test [8] the test system is MCF7. As to the kind of experiment: Inhibition of the necrosis induced by compound in breast cancer MCF-7 cell line. It is filed as functional, cell-based.
The test system of test [9] is Ishikawa. Briefly: Cytotoxicity (growth inhibition) against endometrial cancer ishikawa cell line at 10E-9 mol/L after 24 hr. It counts as functional.
For test [10], the system named is Ishikawa. Briefly: Inhibition of the necrosis induced by compound in endometrial cancer ishikawa cell line after 24 hr. It is filed as functional, cell-based.
Test [11] has as its system MDA-MB-231. As to the kind of experiment: Cytotoxicity (growth inhibition) against breast cancer MDAMB-231 cell line at 10E-8 mol/L. It is filed as functional.
For test [12], the system named is MCF7. As to the kind of experiment: Cytotoxicity (growth inhibition) against breast cancer MCF-7 cell line at 10E-5 mol/L. It is filed as functional.
The subject of test [13] is MDA-MB-231. Briefly: Cytotoxicity (growth inhibition) against breast cancer MDAMB-231 cell line at 10E-5 mol/L. It is filed as functional.
Test [14] deals with Ishikawa. As to the kind of experiment: Cytotoxicity (growth inhibition) against endometrial cancer ishikawa cell line at 10E-6 mol/L after 24 hr. It is filed as functional.
For test [15], the system named is MDA-MB-231. As to the kind of experiment: Cytotoxicity (growth inhibition) against breast cancer MDAMB-231 cell line at 10E-6 mol/L. It is filed as functional.
Test [16] relates to Ishikawa. Briefly: Cytotoxicity (growth inhibition) against endometrial cancer ishikawa cell line at 10E-7 mol/L after 24 hr. It is filed as functional.
The subject of test [17] is Ishikawa. As to the kind of experiment: Cytotoxicity (growth inhibition) against endometrial cancer ishikawa cell line at 10E-8 mol/L after 24 hr. It counts as functional.
Test [18] deals with MDA-MB-231. As to the kind of experiment: Cytotoxicity (growth inhibition) against breast cancer MDAMB-231 cell line at 10E-9 mol/L. It counts as functional.

The term inhibition denotes the drop in the measured response relative to a control, in per cent. A low value points to little suppression. Broadly, the IC50 is the concentration at which inhibition is half-maximal. Read a high IC50 as weaker potency in that assay.

`COc1ccc(C(=O)O[C@H]2[C@H](O[C@@H]3[C@@H](OC(C)=O)[C@H](O[C@H]4C[C@H]5[C@@H]6CC=C7C[C@@H](O)CC[C@]7(C)[C@H]6CC[C@]5(C)[C@@]4(O)[C@H](C)C(=O)CCC(C)C)OC[C@@H]3O)OC[C@@H](O)[C@@H]2O)cc1`: the inhibition at 1 µM in the test with MCF7 [1], in the test on Ishikawa [14] and in the test with MDA-MB-231 [15] was 100% each time. The inhibition at 10 µM in the test with Ishikawa [2], in the test on MCF7 [12] and with MDA-MB-231 [13] was 100% throughout. The inhibition at 0.01 µM with MCF7 [3], in the test on MDA-MB-231 [11] and in the test on Ishikawa [17] was 100% in each case. In addition, the inhibition at 0.1 µM in the test on MDA-MB-231 [4], in the test on MCF7 [5] and in the test with Ishikawa [16] was 100% each time. The inhibition at 0.001 µM was 87% in the test on MCF7 [6], 95% with Ishikawa [9] and 100% in the test on MDA-MB-231 [18]. Moreover, the IC50 was 0.5 µM with MDA-MB-231 [7], 7 µM in the test with MCF7 [8] and 3 µM in the test with Ishikawa [10].

Values taken from ChEMBL document CHEMBL1147449, “Synthesis of analogues of a potent antitumor saponin OSW-1” (Bioorg Med Chem Lett, 2004).
